Molecules are shown by their SMILES.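 96-well plates; 48 h exposure; 5 concentrations. Endpoints by linear interpolation between flanking doses. Not reached: highest tested concentration assigned. GI50 marks 50% less growth. At the TGI there is no net growth.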 Where a SMILES comes first, the peptide text is derived from it. [ ]: non-standard residue; d: D form. Phe(4-Cl) = N[CH](Cc1ccc(Cl)cc1)C(=O)O

Some test systems named below: SNB-78 CNS; XF 498 CNS; RXF-631 renal; DMS 273 small cell lung; DLD-1 colon; LXFL 529 NSCLC; M19-MEL melanoma; HOP-18 NSCLC; MDA-N.
What all share (experiment): NCI tumour cell line growth inhibition, 48 h

Consider `CC(O)C(NC(=O)C(Cc1ccccc1)NC(=O)C(NC(=O)C(CCCCN)NC(=O)C(Cc1c[nH]c2ccccc12)NC(=O)C(Cc1ccc(O)cc1)NC(=O)C(Cc1ccc(Cl)cc1)NC(=O)C(N)Cc1ccccc1)C(C)O)C(N)=O` (stereo unspecified) (H-F[Phe(4-Cl)]YWKTFT-NH2; configuration not given here), for which the TGI in the experiment with SNB-78 CNS was 61 µM; with XF 498 CNS, 28.9 µM; in the experiment with RXF-631 renal it was 42.4 µM; with DMS 273 small cell lung it was above 100 µM; in the experiment on DLD-1 colon, 59.5 µM; in the experiment with LXFL 529 NSCLC it was 39.4 µM. In the experiment on M19-MEL melanoma, this compound gave a TGI of 40.2 µM.

As to `NC1=NN(c2ccccc2)C(=O)C1C(=O)CCC(=O)Nc1cccc(C(F)(F)F)c1` (stereo unspecified), the TGI in the experiment with SNB-78 CNS, in the experiment with HOP-18 NSCLC, in the experiment with RXF-631 renal, with DMS 273 small cell lung, in the experiment on DLD-1 colon and in the experiment on LXFL 529 NSCLC was above 100 µM each time. The same compound displayed a TGI with M19-MEL melanoma above 100 µM.

Take `CCOC(=O)CN=c1nc(SC)sc2c(C(=O)OCC)nc(Sc3ccccc3)n12`: the TGI with HOP-18 NSCLC, in the experiment with XF 498 CNS, in the experiment with RXF-631 renal, in the experiment on DLD-1 colon, in the experiment with LXFL 529 NSCLC and with M19-MEL melanoma was above 100 µM in each case.

For `CC(=O)OC1CC(O)C23COC(O)C1(C)C2CC(O)C1(C)C3C(=O)C(O)C2(C)C(c3ccoc3)CC3OC321` (stereo unspecified), in the experiment on MDA-N, the GI50 was 17.8 nM and the TGI was above 100 µM.

Consider `CCOC1=NC(=O)CC(c2ccccc2)S1` (stereo unspecified), for which the TGI in the experiment on SNB-78 CNS, with XF 498 CNS, in the experiment on DMS 273 small cell lung, with DLD-1 colon, with LXFL 529 NSCLC and with M19-MEL melanoma was above 100 µM in each case.

Consider `Cc1cccc(NC(=O)C(=O)Cc2nc3ccccc3[nH]c2=O)c1C`, for which the TGI in the experiment on SNB-78 CNS, in the experiment with HOP-18 NSCLC, with XF 498 CNS, in the experiment with DLD-1 colon, in the experiment with LXFL 529 NSCLC and in the experiment with M19-MEL melanoma was above 100 µM in each case.

On to `O=C(O)CN(c1ccccc1)S(=O)(=O)c1ccccc1[N+](=O)[O-]`, for which the TGI in the experiment with HOP-18 NSCLC, in the experiment on XF 498 CNS, with RXF-631 renal, in the experiment with DMS 273 small cell lung, in the experiment with DLD-1 colon and in the experiment on LXFL 529 NSCLC was above 100 µM in each case. Also, the TGI in the experiment with M19-MEL melanoma was above 100 µM.

Turning to `Cn1cc(C(=O)c2ccccc2)ccc1=O`, the TGI with SNB-78 CNS, with XF 498 CNS, in the experiment with DMS 273 small cell lung, in the experiment with DLD-1 colon, with LXFL 529 NSCLC and in the experiment with M19-MEL melanoma was above 100 µM each time.

As to `O=c1cccccc1NCCCNc1cccccc1=O`, the TGI in the experiment with SNB-78 CNS, in the experiment on XF 498 CNS, in the experiment with RXF-631 renal, in the experiment on DMS 273 small cell lung, in the experiment with LXFL 529 NSCLC and in the experiment on M19-MEL melanoma was above 100 µM in each case.

Take `O=C1NC(=O)c2ccc([N+](=O)[O-])c3cccc1c23`: the TGI in the experiment with MDA-N is 26.8 µM.

For `COc1ccc(C(C)c2cc3c(cc2OC)OCO3)cc1` (stereo unspecified), the TGI with SNB-78 CNS was above 31.6 µM; with HOP-18 NSCLC, above 100 µM; in the experiment with DMS 273 small cell lung it was 1.29 µM; in the experiment on DLD-1 colon, above 100 µM; in the experiment on LXFL 529 NSCLC, above 42.7 µM; in the experiment on M19-MEL melanoma, above 100 µM.

Regarding `CCOC(=O)NC(=O)c1cn(CCOCCOC(=O)NCCCCCCNC(=O)OCCOCCn2cc(C(=O)NC(=O)OCC)c(=O)[nH]c2=O)c(=O)[nH]c1=O`, the TGI in the experiment on SNB-78 CNS, in the experiment on HOP-18 NSCLC, with RXF-631 renal, in the experiment with DMS 273 small cell lung, with DLD-1 colon and with LXFL 529 NSCLC was above 100 µM each time. For the same compound, the TGI with M19-MEL melanoma is above 100 µM.

`CCCCCCCCCCCCCC1CCC(CC)N1` (stereo unspecified): the TGI in the experiment on SNB-78 CNS was 30.4 µM; with HOP-18 NSCLC, 30.9 µM; in the experiment on DMS 273 small cell lung, 29.1 µM; in the experiment on DLD-1 colon it was 28.9 µM; in the experiment on LXFL 529 NSCLC, 32.6 µM; in the experiment on M19-MEL melanoma, 10.6 µM.

On to `CN(C)CCNC(=O)c1cccc(C(=O)Nc2ccccc2)c1[N+](=O)[O-]`, for which, in the experiment on MDA-N, the TGI is above 100 µM.

As for `Cc1cc(C)nc(NS(=O)(=O)c2ccc(Nc3c4ccccc4nc4c(C(=O)Nc5ccc(S(=O)(=O)Nc6cc(C)on6)cc5)cccc34)cc2)n1`, the TGI with SNB-78 CNS was above 100 µM; in the experiment with HOP-18 NSCLC, 53.4 µM; in the experiment with XF 498 CNS, 53.5 µM; with DMS 273 small cell lung, 55.8 µM; with DLD-1 colon, 78.8 µM; with LXFL 529 NSCLC, 33 µM. For the same compound, the TGI with M19-MEL melanoma was 47.2 µM.

For `Cc1ccccc1N(CCC#N)C1=NN(C(=O)CC(=O)Nc2ccccc2)C(c2ccccc2)C1` (stereo unspecified), the TGI in the experiment with SNB-78 CNS, in the experiment on HOP-18 NSCLC, in the experiment with RXF-631 renal, with DMS 273 small cell lung, in the experiment on DLD-1 colon and with LXFL 529 NSCLC was above 100 µM in each case. Further, the TGI in the experiment on M19-MEL melanoma is above 100 µM.

On to `COC(=O)C1=NC(=S)NC(c2ccccc2)C1c1nc2ccccc2s1` (stereo unspecified), for which the TGI with SNB-78 CNS, with HOP-18 NSCLC, in the experiment on RXF-631 renal, with DMS 273 small cell lung, in the experiment with DLD-1 colon and in the experiment with LXFL 529 NSCLC was above 100 µM in each case. In addition, the TGI with M19-MEL melanoma was above 100 µM.

Turning to `COc1ccc2c(c1)CCC1C3(CCCC21C)OCCO3` (stereo unspecified), the TGI with SNB-78 CNS is 73.9 µM; in the experiment with HOP-18 NSCLC it was 64.8 µM; with RXF-631 renal it was above 100 µM; in the experiment on DMS 273 small cell lung it was 40.3 µM; in the experiment with DLD-1 colon, 34.5 µM; in the experiment with LXFL 529 NSCLC it was 44.9 µM. This compound had a TGI in the experiment on M19-MEL melanoma of 37.7 µM.

As for `Cc1ccc(Nc2nc3c(s2)C(=O)c2ccccc2C3=O)c(C)c1`, the TGI in the experiment on SNB-78 CNS stood at 43.6 µM; in the experiment on HOP-18 NSCLC, 20.1 µM; in the experiment with XF 498 CNS it was 36.2 µM; in the experiment with DMS 273 small cell lung it was 43.7 µM; with DLD-1 colon, 31.4 µM; in the experiment with LXFL 529 NSCLC it was 28.7 µM. In addition, the TGI with M19-MEL melanoma came out at 5.71 µM.

In the case of `c1ccc(C2=NNC3c4ccccc4-c4ccccc4N3C2)cc1` (stereo unspecified), the TGI in the experiment on MDA-N was above 100 µM.

Compound `COc1cc2oc(-c3ccc(O)cc3)cc(=O)c2c(OC)c1OC` registered a TGI with MDA-N above 100 µM.

The record behind these values is PubChem BioAssay (NCI).
